Laboratory results from patent US20240391862A1, “(1,4,5-TRISUBSTITUTED-1H-PYRAZOL-3-YL)OXY-2-ALKOXY ALKYL ACIDS AND THEIR DERIVATIVES, THEIR SALTS AND THEIR USE AS HERBICIDAL AGENTS” (Bayer AKtiengesellschaft, priority 2021, published 2024).

Legend:
ZEAMX = experiment: Post-emergence herbicidal effect and crop plant compatibility, greenhouse pot test; format: in vivo, Zea mays; settings: Zea mays, 504 h, one-leaf stage, rated visually after about 3 weeks vs untreated controls
How it was run: (§1)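 Visual % activity scored roughly 3 weeks post-spray against untreated plants, where 100% means death and 0% equals control. Plants were treated at the one-leaf stage, 2 to 3 weeks after sowing in sandy loam, at 20 to 320 g/ha.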

TRZAS = experiment: as above; format: in vivo, Triticum aestivum; settings: Triticum aestivum, 504 h, 20 g/ha, one-leaf stage, rated visually after about 3 weeks vs untreated controls, read-out: Post-emergence effect at 20 g/ha against TRZAS in %
How it was run: as §1

BRSNW = format: in vivo, Brassica napus; settings: one-leaf stage, rated visually after about 3 weeks vs untreated controls
Text: • ALOMY: Alopecurus myosuroides SETVI: Setaria viridis • AVEFA: Avena fatua POLCO: Fallopia convolvulus • AMARE: Amaranthus retroflexus ECHCG: Echinochloa crus-galli • LOLRJ: Lolium rigidum STEME: Stellaria media • VERPE: Veronica persica MATIN: Tripleurospermum inodorum • DIGSA: Digitaria sanguinalis ABUTH: Abutylon threophrasti • TRZAS: Triticum aestivum VIOTR: Viola tricolor • BRSNW: Brassica napus ZEAMX: Zea mays • PHBPU: Ipomoea purpurea GLXMA: Glycine max • ORYSA: Oryza sativa HORMU: Hordeum murinum
Seeds of monocotyledonous and dicotyledonous weeds and crop plants are placed in sandy loam in plastic or organic planting pots, covered with soil and cultivated in a greenhouse under controlled growth conditions. 2 to 3 weeks after sowing, the trial plants are treated at the one-leaf stage. The compounds of the invention, formulated in the form of wettable powders (WP) or as emulsion concentrates (EC), are then sprayed onto the green parts of the plants as aqueous suspension or emulsion with addition of 0.5% additive at a water application rate of 600 l/ha (converted). After the test plants have been kept in the greenhouse under optimum growth conditions for about 3 weeks, the activity of the preparations is rated visually in comparison to untreated controls. For example, 100% activity=the plants have died, 0% activity=like control plants.
Tables 20a to 38c below show the effects/crop compatibilities of selected compounds of the general formula (I) on various harmful plants at an application rate corresponding to 20 to 320 g/ha, which were obtained by the trial procedure specified above.

VIOTR = experiment: Post-emergence herbicidal effect, greenhouse pot test; format: in vivo, Viola tricolor; settings: Viola tricolor, 504 h, 320 g/ha, read-out: Post-emergence effect against VIOTR in %
How it was run: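 Weeds sown in sandy loam, greenhouse-grown 2–3 weeks, then sprayed at one-leaf stage with WP or EC formulations in water plus 0.5% additive at 600 l/ha. Rates 20 to 320 g/ha. Visual rating after about 3 weeks versus untreated controls (100% = plants dead, 0% = like control).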

With CCOC(Oc1nn(-c2ccccc2F)c(-c2ccc(F)nc2)c1Br)C(=O)O (racemic) [Example I-51, (2RS)-{[4-Bromo-1-(2-fluorophenyl)-5-(6-fluoropyridin-3-yl)-1H-pyrazol-3-yl]oxy}(ethoxy)acetic acid] the plant injury at 20 g/ha (ZEAMX; 20 g/ha, read-out: Post-emergence effect at 20 g/ha against ZEAMX in %) was 0%, the plant injury at 80 g/ha (ZEAMX; 80 g/ha, read-out: Post-emergence effect at 80 g/ha against ZEAMX in %) was 0% and the plant injury at 320 g/ha (ZEAMX; 320 g/ha, read-out: Post-emergence effect at 320 g/ha against ZEAMX in %) was 0%. The percent crop injury (phytotoxicity) to wheat, post-emergence at 20 g/ha (TRZAS) was 0%, the “Post-emergence effect at 320 g/ha against BRSNW in %” value (BRSNW) was 0% and the pest or weed control at 320 g/ha (VIOTR) was 80%.
